Test results taken from US20210300894A1, “CRYSTALLINE FORM OF N-[1-(5-CYANO-PYRIDIN-2-YLMETHYL)-1 H-PYRAZOL-3-YL]-2-[4-(1-TRIFLUO-ROMETHYL-CYCLOPROPYL)-PHENYL]-ACETAMIDE” (IDORSIA PHARMACEUTICALS LTD, priority 2017, published 2021).

Experiment: Gravimetric vapour sorption (GVS) analysis, moisture sorption at 25° C.
Type: physicochemical
Settings: stepping mode in steps of 5% RH, classification according to Ph. Eur.
Procedure: Gravimetric Vapour Sorption (GVS) Analysis
Measurements were performed on an IGASORP Model HAS-036-080 moisture sorption instrument (Hiden Isochema, Warrington, UK) operated in stepping mode at 25° C. The sample was allowed to equilibrate at the starting relative humidity (RH) before starting a pre-defined humidity program in steps of 5% ARH and with a maximal equilibration time of 24 hours per step. About 20 to 30 mg of each sample was used.

N#Cc1ccc(Cn2ccc(NC(=O)Cc3ccc(C4(C(F)(F)F)CC4)cc3)n2)nc1 [COMPOUND in crystalline form 1, N-[1-(5-cyano-pyridin-2-ylmethyl)-1H-pyrazol-3-yl]-2-[4-(1-trifluoromethyl-cyclopropyl)-phenyl]-acetamide]
Moisture sorption at 25° C. (GVS), hygroscopicity according to Ph. Eur.: not hygroscopic according to Ph. Eur
